Test results as given in ChEMBL document CHEMBL5032522, “N-2-(phenylamino) benzamide derivatives as novel anti-glioblastoma agents: Synthesis and biological evaluation” (Eur J Med Chem, 2021).
Calls of active or inactive are those of the source. No cut-off for these calls is given here.

Legend:
[1] = system: U-251; experiment: Antiproliferative activity against human U-251 cells assessed as inhibition of cell growth measured after 72 hrs by CCK-8 assay; type: functional, cell-based; conditions: U-251, 72 h
[2] = biological target: T1, Prostaglandin G/H synthase 2 (Homo sapiens, UniProt P35354); experiment: Inhibition of human recombinant COX-2 using arachidonic acid as substrate preincubated 10 mins followed by substrate addition and measured after 2 mins by ELISA
T1 sequence (P35354 whole entry): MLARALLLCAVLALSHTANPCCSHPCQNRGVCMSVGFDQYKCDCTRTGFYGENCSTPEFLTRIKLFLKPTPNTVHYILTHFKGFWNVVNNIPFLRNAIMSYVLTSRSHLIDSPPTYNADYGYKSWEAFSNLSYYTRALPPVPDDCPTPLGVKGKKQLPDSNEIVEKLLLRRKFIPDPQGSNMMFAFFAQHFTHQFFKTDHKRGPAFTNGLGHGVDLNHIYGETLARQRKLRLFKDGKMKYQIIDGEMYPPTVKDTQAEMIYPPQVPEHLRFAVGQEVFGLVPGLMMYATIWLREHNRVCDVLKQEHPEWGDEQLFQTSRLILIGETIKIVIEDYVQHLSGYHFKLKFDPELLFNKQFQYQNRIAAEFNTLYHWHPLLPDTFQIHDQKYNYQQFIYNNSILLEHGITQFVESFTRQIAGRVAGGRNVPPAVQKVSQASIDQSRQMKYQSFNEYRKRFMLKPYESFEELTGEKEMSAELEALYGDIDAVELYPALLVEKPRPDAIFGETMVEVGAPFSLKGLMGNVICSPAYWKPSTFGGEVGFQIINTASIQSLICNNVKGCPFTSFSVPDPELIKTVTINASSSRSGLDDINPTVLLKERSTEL

[3] = system: U-87 MG; experiment: Antiproliferative activity against human U-87 MG cells assessed as inhibition of cell growth measured up to 72 hrs by CCK-8 assay; type: functional, cell-based; conditions: U-87MG ATCC, time hrs <=72
[4] = system: U-87 MG; experiment: Induction of morphological changes in human U-87 MG cells assessed as appearance of rounded and shortened cells at 3.3 uM incubated for 72 hrs by Giemsa staining based light microscopic method; type: functional, cell-based; conditions: U-87MG ATCC
[5] = system: U-251; experiment: Induction of cell cycle arrest in human U-251 cells assessed as accumulation of cells at G2/M phase incubated for 72 hrs by propidium iodide/RNase A staining based flow cytometry analysis; type: functional
[6] = system: U-251; experiment: Induction of cell cycle arrest in human U-251 cells assessed as reduction in G0/G1 phase accumulation at 10 uM incubated for 72 hrs by propidium iodide/RNase A staining based flow cytometry (reference value: 79.12%); type: functional; set-up: scale not given: the % may be the effect or the level left
[7] = system: U-87 MG; experiment: Induction of cell cycle arrest in human U-87 MG assessed as decrease in G0/G1 phase accumulation at 10 uM incubated for 72 hrs by propidium iodide/RNase A staining based flow cytometry; type: functional; conditions: U-87MG ATCC
[8] = system: U-87 MG; experiment: Inhibition of cell invasion in human U-87 MG cells incubated for 24 hrs by crystal violet staining based light microscopic analysis; type: functional; conditions: U-87MG ATCC
[9] = system: U-87 MG; experiment: Inhibition of cell migration in human U-87 MG cells incubated for 24 hrs by crystal violet staining based light microscopic analysis; type: functional; conditions: U-87MG ATCC
[10] = Acute toxicity in Kunming mouse assessed as death at 1000 mg/kg, ip administered as single dose observed every day for 14 days; type: organism-based; conditions: in vivo, 336 h, time 14 day
[11] = Acute toxicity in Kunming mouse assessed as death at 500 mg/kg, ip administered as single dose observed every day for 14 days; type: organism-based; conditions: in vivo, 336 h, time 14 day
[12] = Drug concentration in Sprague-Dawley rat brain at 100 mg/kg, ip measured 6 hrs post administration by LC-MS analysis; type: ADME, organism-based; conditions: read-out: Ct
[13] = biological target: T2, Prostaglandin G/H synthase 2 (Rattus norvegicus) (UniProt P35355); experiment: In vivo inhibition of COX2 in ip dosed orthotopic Sprague-Dawley rat model inoculated with C6 cells assessed as reduction in PGE2 production by ELISA; type: functional, organism-based
T2 sequence (whole entry): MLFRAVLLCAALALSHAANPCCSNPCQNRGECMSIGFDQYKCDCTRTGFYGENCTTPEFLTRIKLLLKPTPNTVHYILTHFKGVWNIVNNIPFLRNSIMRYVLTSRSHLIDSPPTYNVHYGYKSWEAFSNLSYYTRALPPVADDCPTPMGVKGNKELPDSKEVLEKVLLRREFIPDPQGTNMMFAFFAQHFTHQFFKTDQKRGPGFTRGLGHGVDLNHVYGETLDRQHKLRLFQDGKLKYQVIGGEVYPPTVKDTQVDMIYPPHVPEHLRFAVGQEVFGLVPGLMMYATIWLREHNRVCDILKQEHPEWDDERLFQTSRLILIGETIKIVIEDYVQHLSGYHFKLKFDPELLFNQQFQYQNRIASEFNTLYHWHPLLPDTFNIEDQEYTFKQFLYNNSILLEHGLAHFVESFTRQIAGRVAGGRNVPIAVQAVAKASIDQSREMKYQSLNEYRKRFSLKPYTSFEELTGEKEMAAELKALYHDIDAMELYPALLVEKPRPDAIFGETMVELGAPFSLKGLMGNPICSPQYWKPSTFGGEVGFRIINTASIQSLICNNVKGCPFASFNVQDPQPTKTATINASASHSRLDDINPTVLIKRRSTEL

[14] = system: U-87 MG; experiment: Induction of morphological changes in human U-87 MG cells assessed as appearance of shrunken cell bodies at 3.3 uM incubated for 72 hrs by Giemsa staining based light microscopic method; type: functional; conditions: U-87MG ATCC
[15] = system: U-251; experiment: Induction of morphological changes in human U-251 cells assessed as appearance of rounded and shortened cells at 3.3 uM incubated for 72 hrs by Giemsa staining based light microscopic method; type: functional, cell-based
[16] = system: U-251; experiment: Induction of morphological changes in human U-251 cells assessed as appearance of spindle cell shape at 3.3 uM incubated for 72 hrs by Giemsa staining based light microscopic method; type: functional
[17] = system: U-251; experiment: Induction of morphological changes in human U-251 cells assessed as appearance of shrunken cell bodies at 3.3 uM incubated for 72 hrs by Giemsa staining based light microscopic method; type: functional

Row | SMILES | IC50 [1] | IC50 [2] | Activity [3] | Activity [4] | Activity [5] | Activity [6] | Activity [7] | inhibition [8] | inhibition [9] | Activity [10] | Activity [11] | concentration at 6 h [12] | inhibition [13] | Activity [14] | Activity [15] | Activity [16] | Activity [17]
1 | COc1ccc(NC(=O)c2ccccc2Nc2cccc(Cl)c2C)cc1 | 5.36 µM | 33.6 µM | Dose-Dependent Effect | Active | Dose-Dependent Effect | 26.28% | Active | Dose-Dependent Effect | Dose-Dependent Effect | Toxic | Toxic | 3380 ng/mL | Active | Active | Active | Active | Active
2 | Cc1c(Cl)cccc1Nc1ccccc1C(=O)Nc1ccc2c(c1)OCO2 | 9.91 µM | 45 µM | Dose-Dependent Effect | Active | Dose-Dependent Effect | 25.36% | Active | Dose-Dependent Effect | Dose-Dependent Effect | Toxic | Non-Toxic | 1410 ng/mL | Active | Active | Active | Active | Active
